According to US11285135B2 (AMGEN INC., priority 2016, dated 2022):

biological target: GDP-bound protein (aa 1-169), containing both G12C and C118A amino acid substitutions (Homo sapiens, UniProt P01116, C118A/G12C); assay: Coupled Nucleotide Exchange Assay (SOS-mediated nucleotide exchange, AlphaScreen); type: biochemical; conditions: 2 hours compound pre-incubation
Procedure: Coupled Nucleotide Exchange Assay: Purified GDP-bound […] protein (aa 1-169), containing both G12C and C118A amino acid substitutions and an N-terminal His-tag, was pre-incubated with a compound dose-response titration for 2 hours in assay buffer (25 mM HEPES pH 7.4, 10 mM MgCl2, and 0.01% Triton X-100). Following compound pre-incubation, purified SOS protein (aa 564-1049) and GTP (Roche 10106399001) were added to the assay wells and incubated for an additional hour. […] The assay plates were then read on a PerkinElmer EnVision Multilabel Reader, using AlphaScreen® technology, and data were analyzed using a 4-parameter logistic model to calculate IC50 values.

Chain of GDP-bound protein (aa 1-169), containing both G12C and C118A amino acid substitutions (P01116 1-169 isoform P01116-2 G12C/C118A): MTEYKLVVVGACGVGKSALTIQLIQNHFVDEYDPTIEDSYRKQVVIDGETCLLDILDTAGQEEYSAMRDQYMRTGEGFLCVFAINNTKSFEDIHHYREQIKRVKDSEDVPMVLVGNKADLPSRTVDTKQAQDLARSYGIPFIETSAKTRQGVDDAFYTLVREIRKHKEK

SMILES | Coupled exchange IC50
C=CC(=O)N1CCN(c2snc3c(F)c(-c4cc(O)cc5ccccc45)c(Cl)cc23)CC1C(N)=O (racemic) [Example 1-12, 4-(5-chloro-7-fluoro-6-(3-hydroxy-1-naphthalenyl)-2,1-benzothiazol-3-yl)-1-(2-propenoyl)-2-piperazinecarboxamide] | 11.8 µM
C=CC(=O)N1CCN(c2nnc(C(C)c3ccccc3)c3cc(-c4c(O)cccc4F)c(Cl)cc23)CC1 (racemic) [Example 28, 1-(4-(7-chloro-6-(2-fluoro-6-hydroxyphenyl)-4-((1R)-1-phenylethyl)-1-phthalazinyl)-1-piperazinyl)-2-propen-1-one and 1-(4-(7-chloro-6-(2-fluoro-6-hydroxyphenyl)-4-((1S)-1-phenylethyl)-1-phthalazinyl)-1-piperazinyl)-2-propen-1-one] | 8.17 µM
C=CC(=O)N1CCN(c2snc3cc(-c4c(F)cccc4OC)c(Cl)cc23)CC1 [Example 1-5, 1-(4-(5-chloro-6-(2-fluoro-6-methoxyphenyl)-2,1-benzothiazol-3-yl)-1-piperazinyl)-2-propen-1-one] | 6.66 µM
C=CC(=O)N1CCN(c2snc3c(F)c(-c4cc(N)ccc4F)c(Cl)cc23)CC1 [Example 3-14, 1-(4-(6-(5-amino-2-fluorophenyl)-5-chloro-7-fluoro-2,1-benzothiazol-3-yl)-1-piperazinyl)-2-propen-1-one] | 5.64 µM
C=CC(=O)N1CCN(c2nnc(Cc3ccccc3)c3cc(Cl)c(-c4c(O)cccc4F)cc23)CC1 [Example 36, 2-(4-(4-acryloyl-1-piperazinyl)-1-benzyl-7-chloro-6-phthalazinyl)-3-fluorophenol] | 39.8 µM
C=CC(=O)N1CCN(c2snc3c(F)c(-c4c(OC)ccc5ccccc45)c(Cl)cc23)CC1 [Example 1-13, 1-(4-(5-chloro-7-fluoro-6-(2-methoxy-1-naphthalenyl)-2,1-benzothiazol-3-yl)-1-piperazinyl)-2-propen-1-one] | >10 µM
C=CC(=O)N1CCN(c2snc3nc(-c4c(C)ccc5[nH]ncc45)c(Cl)cc23)C(C)C1 (single isomer, unassigned) [Example 2-6-1, 1-((3S)-4-(5-chloro-6-(5-methyl-1H-indazol-4-yl)[1,2]thiazolo[3,4-b]pyridin-3-yl)-3-methyl-1-piperazinyl)-2-propen-1-one or 1-((3R)-4-(5-chloro-6-(5-methyl-1H-indazol-4-yl)[1,2]thiazolo[3,4-b]pyridin-3-yl)-3-methyl-1-piperazinyl)-2-propen-1-one] | 13.0 µM
C=CC(=O)N1CCN(c2snc3c(F)c(-c4ccc(F)cc4F)c(Cl)cc23)CC1 [Example 3-7, 1-(4-(5-chloro-6-(2,4-difluorophenyl)-7-fluoro-2,1-benzothiazol-3-yl)-1-piperazinyl)-2-propen-1-one] | 6.98 µM
C=CC(=O)N1CCN(c2nnc(C3CCCC3)c3cc(-c4c(O)cccc4F)c(Cl)cc23)CC1 [Example 14, 1-(4-(7-Chloro-4-cyclopentyl-6-(2-fluoro-6-hydroxyphenyl)-1-phthalazinyl)-1-piperazinyl)-2-propen-1-one] | 2.69 µM
C=CC(=O)N[C@@H]1CCCN(c2snc3c(F)c(-c4cc(O)cc5ccccc45)c(Cl)cc23)C1 [Example 1-23, N-((3R)-1-(5-chloro-7-fluoro-6-(3-hydroxy-1-naphthalenyl)-2,1-benzothiazol-3-yl)-3-piperidinyl)-2-propenamide] | >250 µM
C=CC(=O)N1CCN(c2snc3c(F)c(-c4cc(O)c(Cl)cc4Cl)c(Cl)cc23)CC1 [Example 3-17, 1-(4-(5-chloro-6-(2,4-dichloro-5-hydroxyphenyl)-7-fluoro-2,1-benzothiazol-3-yl)-1-piperazinyl)-2-propen-1-one] | 5.48 µM
C=CC(=O)N1CCN(c2nnc(OC)c3cc(-c4c(O)cccc4F)c(Cl)cc23)CC1 (single isomer, unassigned) [Example 32, 2-(1-(4-Acryloyl-1-piperazinyl)-7-chloro-4-methoxy-6-phthalazinyl)-3-fluorophenol] | 28.6 µM
C=CC(=O)N1CCN(c2snc3c(F)c(-c4cccc5ccc(=O)[nH]c45)c(Cl)cc23)CC1 [Example 3-2, 8-(5-chloro-7-fluoro-3-(4-(2-propenoyl)-1-piperazinyl)-2,1-benzothiazol-6-yl)-2(1H)-quinolinone] | >250 µM
C=CC(=O)N1CCN(c2snc3c(F)c(-c4cccc5[nH]c(=O)ccc45)c(Cl)cc23)CC1 [Example 3-4, 5-(5-chloro-7-fluoro-3-(4-(2-propenoyl)-1-piperazinyl)-2,1-benzothiazol-6-yl)-2(1H)-quinolinone] | >250 µM
C=CC(=O)N1CCN(c2snc3c(F)c(-c4cc(N)cc(C#N)c4)c(Cl)cc23)CC1 [Example 3-25, 3-amino-5-(5-chloro-7-fluoro-3-(4-(2-propenoyl)-1-piperazmyl)-2,1-benzothiazol-6-yl)benzonitrile] | >250 µM
C=CC(=O)N1CCN(c2snc3c(F)c(-c4nc(NC)cc5ccccc45)c(Cl)cc23)CC1 [Example 24, 1-(4-(5-Chloro-7-fluoro-6-(3-(methylamino)-1-isoquinolinyl)-2,1-benzothiazol-3-yl)-1-piperazinyl)-2-propen-1-one] | 6.20 µM
C=CC(=O)N1CCN(c2nnc(Cc3ccccc3)c3cc(Cl)c(Cl)cc23)CC1 [Example 34, 1-(4-Acryloyl-1-piperazinyl)-4-benzyl-6,7-dichlorophthalazine] | 34.2 µM
C=CC(=O)N1CCN(c2nnc(-c3ccccc3)c3cc(Cl)c(-c4c(O)cccc4F)cc23)CC1 [Example 31, 2-(4-(4-acryloyl-1-piperazinyl)-7-chloro-1-phenyl-6-phthalazinyl)-3-fluorophenol] | 123 µM
C=CC(=O)N[C@@H]1CCN(c2snc3c(F)c(-c4cc(O)cc5ccccc45)c(Cl)cc23)C1 [Example 1-22, N-((3R)-1-(5-chloro-7-fluoro-6-(3-hydroxy-1-naphthalenyl)-2,1-benzothiazol-3-yl)-3-pyrrolidinyl)-2-propenamide] | >250 µM
C=CC(=O)N1CCN(c2snc3c(F)c(-c4cccc5ccncc45)c(Cl)cc23)CC1 [Example 3-3, 1-(4-(5-chloro-7-fluoro-6-(8-isoquinolinyl)-2,1-benzothiazol-3-yl)-1-piperazinyl)-2-propen-1-one] | 11.3 µM

Results, then the molecule that gave them:

Coupled exchange IC50 | SMILES
>250 µM | C=CC(=O)N1CCC[C@@H](Nc2snc3c(F)c(-c4cc(O)cc5ccccc45)c(Cl)cc23)C1 [Example 4-9, 1-((3R)-3-((5-chloro-7-fluoro-6-(3-hydroxynaphthalen-1-yl)benzo[c]isothiazol-3-yl)amino)piperidin-1-yl)prop-2-en-1-one]
>250 µM | C=CC(=O)N1CC2(C1)CN(c1snc3c(F)c(Br)c(Cl)cc13)C2 [Example 4-2, 1-(6-(6-bromo-5-chloro-7-fluoro-2,1-benzothiazol-3-yl)-2,6-diazaspiro[3.3]hept-2-yl)-2-propen-1-one]
>250 µM | C=CC(=O)N1CC2(C1)CN(c1snc3c(F)c(-c4cc(OC)cc5ccccc45)c(Cl)cc13)C2 [Example 4-3, 1-(6-(5-chloro-7-fluoro-6-(3-methoxy-1-naphthalenyl)-2,1-benzothiazol-3-yl)-2,6-diazaspiro[3,3]heptan-2-yl)-2-propen-1-one]
>250 µM | C=CC(=O)NC1CN(c2snc3c(F)c(-c4cc(OC)cc5ccccc45)c(Cl)cc23)C1 [Example 4-5, N-(1-(5-chloro-7-fluoro-6-(3-methoxy-1-naphthalenyl)-2,1-benzothiazol-3-yl)-3-azetidinyl)-2-propenamide]
>250 µM | C=CC(=O)NC1CN(c2snc3c(F)c(Br)c(Cl)cc23)C1 [Example 4-4, N-(1-(6-bromo-5-chloro-7-fluoro-2,1-benzothiazol-3-yl)-3-azetidinyl)-2-propenamide]
24.5 µM | C=CC(=O)N1CCN(c2nnc(-c3ccccc3C)c3cc(-c4c(O)cccc4F)c(Cl)cc23)CC1 [Example 10-1, 1-(4-(7-Chloro-6-(2-fluoro-6-hydroxyphenyl)-4-(2-methylphenyl)-1-phthalazinyl)-1-piperazinyl)-2-propen-1-one]
5.31 µM | C=CC(=O)N1CCN(c2snc3c(F)c(-c4ncccc4Cl)c(Cl)cc23)CC1 [Example 6-2, 1-(4-(5-chloro-6-(3-chloro-2-pyridinyl)-7-fluoro-2,1-benzothiazol-3-yl)-1-piperazinyl)-2-propen-1-one]
14.2 µM | C=CC(=O)NC1(C)CN(c2snc3c(F)c(-c4cc(O)cc5ccccc45)c(Cl)cc23)C1 [Example 5-2, N-(1-(5-chloro-7-fluoro-6-(3-hydroxy-1-naphthalenyl)-2,1-benzothiazol-3yl)-3-methyl-3-azetidinyl)-2-propenamide]
23.0 µM | C=C(CO)C(=O)N1CCN(c2snc3c(F)c(-c4cc(OC)cc5ccccc45)c(Cl)cc23)CC1 [Example 18-1, 1-(4-(5-chloro-7-fluoro-6-(3-methoxy-1-naphthalenyl)-2,1-benzothiazol-3-yl)-1-piperazinyl)-2-(hydroxymethyl)-2-propen-1-one]
20.6 µM | COc1cc(-c2c(Cl)cc3c(N4CCN(C(=O)/C=C/CN(C)C)CC4)snc3c2F)c2ccccc2c1 [Example 17-1, (2E)-1-(4-(5-Chloro-7-fluoro-6-(3-methoxy-1-naphthalenyl)-2,1-benzothiazol-3-yl)-1-piperazinyl)-4-(dimethylamino)-2-buten-1-one]
